Laboratory results: patent publication US7361735B2, “LITAF binding site peptides and methods of using the same” (Trustees of Boston University, priority 2003, dated 2008)

Columns and labels:
[1] = test system: mtTNFP1 (−991 to 1Δ−515 to −511); assay: Luciferase reporter assay, full-length TNF-α promoter lacking CTCCC, THP-1; assay type: cell-based, human; conditions: 1 μg/ml peptide via Chariot or 100 ng/ml LPS, FIG. 6a
Procedure: (§1) FIGS. 6a and 6b are graphical representations of the transcriptional activity of a series of deletion constructs of TNF-α promoter DNA. FIG. 6a depicts the activity measured due to either the promoter wtTNFβ (−991 to 1) or mtTNFβ1 (−991 to 1Δ−515 to −511). pGL3-basic transfected cell as unstimulated control was used. After transfection of DNAs for 3 hrs, the cells were washed with PBS twice, and stimulated with 100 ng/ml LPS (E. coli) or transfected with Chariot/peptide complex of 1 μg/ml of either peptide A, B, C, or HA. Triplicate assays were performed. Values are normalized by β-gal production and graphed. FIG. 6b depicts the activity measured due to the promoter mtTNFβ2 (−550 to −487 plus TATA box) or mtTNFβ3 (−550 to −487Δ−515 to −511 plus TATA box). LPS or peptides as stimuli and controls were used at the same condition as described above.
(§2) The following series of hTNF-α promoter DNA fragments were subcloned (FIG. 1b) into the pGL3-Basic vector, which has a promoterless and enhancerless luciferase reporter gene, available from Pharmacia: 1. wtTNFP (−991 to 1) was generated by PCR with primer pairs: 5′-[…]-3′ (SEQ ID NO: 20′) and 5′-[…]-3′(SEQ ID NO: 21′). 2. mtTNFP1 (−991 to 1Δ−515 to −511). The first in-frame mutant hTNF-α promoter was generated by PCR with primer pairs, 5′-[…]-3′(SEQ ID NO: 20) and 5′-[…] (SEQ ID NO: 22). The second mutant DNA was generated by PCR with primer pairs, 5′-[…]-3′ (SEQ ID NO: 23) and 5′-[…]-3′ (SEQ ID NO: 21). Both first and second DNA fragments above were purified and diluted as template to 1 ng/reaction and finally amplified by PCR with primer pairs, 5′-[…]-3′ (SEQ ID NO: 20) and 5′-[…]-3′ (SEQ ID NO: 21). […]
(§3) THP-1 cells (5×10^6/well) were induced to maturation by addition of […] (Sigma) and incubated at 37° C., 5% CO2 for 20 hrs, washed with PBS twice, co-transfected with 1 μg DNAs by using Fugene 6 (Roche Molecular Biochemicals) for 3 hrs, washed with PBS, then individually transfected with Chariot/peptide complex of 1 μg/ml peptide A, B, C or HA or stimulated with 100 ng/ml LPS (E. coli) for 3 hrs, washed with PBS, incubated at 37° C., 5% CO2, overnight. […] Luciferase activity in the lysates was measured using a commercial kit (Luciferase Reporter Assay System, Promega) and normalized by β-gal assay in the same lysates as described (McClane et al., Hum. Gene Ther. 10:739-746, 1997).
(§4) To determine whether the short sequence CTCCC (−515 to −511) in the hTNF-a promoter is responsible for hLITAF binding activity, a series of hTNF-α promoter/reporter constructs were cloned (see FIG. 1b) and individually transiently transfected into THP-1 cells. […] TNF-α promoter activity was subsequently analyzed using the luciferase assay. […]

THP-1 cells = assay: ELISA of hTNF-α after Chariot delivery of peptide; assay type: cell-based, human; conditions: PMA-matured THP-1; Chariot/peptide 1, 10, 100 ng/ml or 1 μg/ml; 24 hours; ELISA of supernatant
Procedure: FIG. 5 is a graphical representation of the production of TNF-α in THP-1 cells after transfection of peptide A, B, C, or HA with Chariot as described herein. The concentration of active of TNF-α was induced by various concentrations of peptide and measured by duplicate ELISA tests at the same condition and graphed.
THP-1 cells were induced to maturation by addition of […] (Sigma) and incubated at 37° C., 5% CO2 for 20 hrs, then washed with PBS twice, and stimulated (delivered) with Chariot/peptide complex of various concentrations of either peptide A or B or C or HA in a 96-well plate at 2×10^4 cells/well as indicated in the text. After 24 hrs of incubation at 37° C., 5% CO2, culture supernatants were harvested, centrifuged at 1,500×g to remove cell debris, then TNF-α was measured by ELISA (ABRAXIS, Hatboro, Pa.) and quantified on a Model 680 Microplate Reader (BioRad).
Therefore, peptides A, B, and C, were synthesized based on the amino acid sequence of hLITAF. […] After pretreatment with PMA, peptides A, B, C, or HA were introduced into THP-1 cells using Chariot, as described herein, in concentrations of 1, 10, 100 ng/ml or 1 μg/ml. After 24 hours, culture supernatants were harvested and TNF-α was quantified by ELISA. […] In contrast, peptide B increased TNF-α secretion by as much as 2.4 fold over unstimulated levels.

wtTNFP (−991 to 1) = assay: Luciferase reporter assay, wild type full-length TNF-α promoter, THP-1; assay type: cell-based, human; conditions: 1 μg/ml peptide via Chariot or 100 ng/ml LPS, normalized by β-gal, peptide B compared with HA-stimulated cells
Procedure: as §1, §2, §3, §4

[2] = test system: mtTNFP2 (−550 to −487 plus TATA Box); assay: Luciferase reporter assay, short TNF-α promoter fragment with LITAF binding site, THP-1; assay type: cell-based, human; conditions: 1 μg/ml peptide via Chariot or 100 ng/ml LPS, in comparison with the HA control, FIG. 6b
Procedure: as §1, §2, §3, §4

[3] = test system: mtTNFβ1, promoter from −991 to 1 lacking the LITAF binding site; assay: Luciferase reporter assay, mutant TNF-α promoter lacking LITAF binding site, WTK-1; assay type: cell-based; conditions: WTK-1 cells; LPS stimulation
Excerpt: (§5) FIG. 10 is a graphical representation of the analysis of LITAF function in luciferase reporter constructs. The series of TNF-α promoter DNA fragments were subcloned into the pGL3 basic vector (Pharmacia), a promoterless and enhancerless luciferase reporter gene. One construct, named wtTNFβ, contained TNF-α promoter from −991 to 1. Another one, mtTNFβ1, was a mutant inserted with the promoter from −991 to 1, but lacking the LITAF binding site. WTK-1 cells (grown to 85% confluence) in a 6-well plate at 1.2×10^5 cells/well were co-transfected with 1 μg DNAs including pCMV-LITAF recombinant vector, pVMVβ-gal and pGL3 basic as control by Fugene 6 (Roche Molecular Biochemicals) for 3 hrs, washed with PBS twice, then individually stimulated with LPS or Chariot/peptide complex of 100 ng/ml peptide B (peptide fragment of LITAF representing aa 152-228) or HA as control for 3 hrs, washed with PBS, incubated at 37° C., 5% CO2, o/n. The β-galactosidase gene was included in all transfections. The cells were harvested and lysed approximately 12 hrs after transfection. The promoter activity from each lysate sample was measured using the luciferase reporter assay system (Promega) and normalized to β-gal expression in the same sample, as described in the methods section below.
(§6) The activation of TNF-α gene expression by LITAF was investigated. […]

COS-7 cells = assay: TUNEL analysis of DNA fragmentation of apoptotic cells; assay type: cell-based
Procedure: FIG. 8 depicts the TUNEL analysis of DNA fragmentation of apoptotic COS-7 cells in response to LPS. After LPS stimulation, cells were fixed in 4% methanol-free formaldehyde solution for 30 min at room temperature, then permeated with 0.1% Triton X-100 for 2 min at 4° C. After washing with PBS, the samples were stained according to the manufacturer's recommended protocol for TUNEL (Promega.). The fragmentation of apoptotic COS-7 cell nuclei was analyzed by fluorescence microscopy (panels g, f, or h). The corresponding field was also observed by standard phase contrast microscopy (panels a, b, or c).
Since the induction of LITAF follows the accumulation of p53 (FIG. 7a), the DNA fragmentation of apoptotic COS-7 cells after 4 hrs with LPS stimulation was investigated.

[4] = test system: COS-7 cells (wild-type p53); assay: Western blot of p53 accumulation after LPS; assay type: cell-based; conditions: LPS 500 ng/ml for 4 hrs
Procedure: (§7) FIGS. 7a and 7b show the analysis of the accumulation of p53 and induction of LITAF mRNA. […] 60 μg of crude cell lysate was loaded per lane and separated on an 8% SDS-PAGE, which were then transferred to Immobilon-P. The protein blots were probed individually with monoclonal antibodies specific for p53 (DO-1, Santa cruz) or with goat polyclonal antibodies for actin (C-11, Santa cruz). p53 proteins were expressed well in lanes 2 through 4. […] Cells were incubated with 100 or 500 ng/ml of LPS for 4 or 24 hrs. Total cellular RNA was purified by using the Oligotex mRNA Kit (Qiagen). mRNA was size-fractionated on a denaturing formaldehyde-agarose gel (1.1%) and transferred onto a Hybond-N^+ membrane (Amersham). These filters were hybridized with an γ-^32P ATP-labeled DNA probe and then autoradiographed with BIOMAX MR film (Kodak).
(§8) The accumulation of p53 after LPS stimulation was investigated.

[5] = test system: wtTNFβ, TNF-α promoter from −991 to 1; assay: Luciferase reporter assay, wild-type TNF-α promoter, WTK-1; assay type: cell-based; conditions: WTK-1 cells; normalized to β-gal; LITAF overexpressed alone without LPS stimulation
Excerpt: as §5, §6

[6] = test system: mtTNFP3 (−550 to −487Δ−515 to −511 plus TATA Box); assay: Luciferase reporter assay, short TNF-α promoter fragment lacking LITAF binding site, THP-1; assay type: cell-based, human; conditions: 100 ng/ml LPS, FIG. 6b
Procedure: as §1, with “above. […]” for “above.”
as §4

[7] = test system: COS-7 cells (wild-type p53); assay: Northern blot of LITAF transcript after LPS, COS-7; assay type: cell-based; conditions: LPS 500 ng/ml for 4 hrs
Procedure: as §7, §8

[8] = test system: WTK-1 cells (p53-deficient cell line); assay: Northern blot of LITAF transcript after LPS, WTK-1; assay type: cell-based; conditions: WTK-1 p53-deficient cells
Procedure: as §7, §8

Substance	promoter activity (luciferase), mutant TNF-α promoter lacking the CTCCC motif [1]	TNF-α secretion over unstimulated levels (THP-1 cells)	hTNF-α promoter activity (luciferase expression), wild type promoter (wtTNFP (−991 to 1))	expression of luciferase, shorter reporter plasmid containing the LITAF binding site [2]	TNF-α promoter activity (luciferase), mutant promoter/reporter plasmid [3]	apoptosis (TUNEL) (COS-7 cells; 100 ng/ml of LPS)	TUNEL-positive (apoptotic) cells (COS-7 cells; 500 ng/ml LPS for at least 4 hrs)	inducible p53 protein [4]	TNF-α promoter activity (luciferase), wild-type promoter/reporter plasmid [5]	activation of shorter reporter plasmid lacking the LITAF binding site [6]	LITAF transcript [7]	LITAF transcription [8]
SQTWREPGAAGSPFHL [peptide B]	no appreciable induction	≤ 2.4 fold	~2 fold	2.3 fold	–	–	–	–	–	–	–	–
YPYDVPDYASL [HA, reference compound]	–	did not induce any significant TNF-α secretion	–	–	–	–	–	–	–	–	–	–
SYYTQPAPIPNNNPIT VQTVY (SYYTQPAPIPNNNPITVQTVY) [peptide A]	no appreciable induction	did not induce any significant TNF-α secretion	did not result in any significant increase	unable to activate	–	–	–	–	–	–	–	–
Lipopolysaccharide [LPS]	similarly activated	–	similarly activated	strongly dependent on the presence of the LITAF binding site	similarly activated	did not induce apoptosis	significantly increased	detected	similarly activated	activation not observed	detected	did not induce LITAF transcription
LSSSFTPGGGSALVVS [peptide C]	no appreciable induction	did not induce any significant TNF-α secretion	did not result in any significant increase	unable to activate	–	–	–	–	–	–	–	–
